In patent EP0881896B1, “SKIN TREATMENT WITH SALICYLIC ACID ESTERS AND RETINOIDS” (FD MANAGEMENT, INC., priority 1996, dated 1997):
Like-named read-outs stand apart in the source and are kept apart here.

Test system: sebocytes
Assay: In Vitro sebocyte Lipogenesis Assay (14-C acetate incorporation into lipid)
Assay type: cell-based, Human
Description: Dermatologic disorders, chronoaging and environmental abuse all have some relationship to sebum production. The present example reports an in vitro analysis of sebum suppression by use of a combination of salicylate ester and retinoid.
Human sebaceous glands were isolated from the nose of a person and cultured using submerged tissue culture techniques (Bajor et al, J. Invest, Dermatol, 102:1994. P. 564). These sebocytes accumulate intracellular lipid droplets characteristic of mature human sebum.
Harvested and passaged sebocytes were added to each well of a 48 well tissue culture plate and incubated at 37°C in the presence of 7.5% CO2 for 14 days. The growth medium was changed three times per week. On the day of experimentation, the growth medium was removed and the sebocytes washed three times with phosphate buffered saline (PBS). Fresh PBS in 0.5 ml amount was added to each well and 10 microliters of active agent speculated to inhibit lipogenesis. Triplicate wells were utilized for each sample. […] The cultures were incubated at 37°C/7.5% CO2 for 30 minutes. Radioactive label was prepared by adding 100 ul of 14-C labelled acetic acid (Amersham, sodium salt, specific activity of 56 mCi/mmol) to 10 mL of 50 mM sodium acetate buffer. Then 50 ul was added to each well containing the sebocytes and active agents. The cultures were returned to the incubator for 4 hours. Thereafter the treatments and label were removed and the sebocytes rinsed three times with fresh PBS. Sebocytes were harvested and 10 microliters removed and set aside for protein assessment. The remaining samples containing the 14-C label were extracted and the label counted using a Beckman scintillation counter. Triplicates were performed for each sample.
For each 48 well tissue culture plate, 16 samples could be analyzed. Of these, 1 sample was reserved for PBS, 1 sample for DMSO, and 1 sample for phenol red leaving 13 remaining samples. When TDS (tridecyl salicylate) was analyzed in the presence of other compounds, an additional set of wells was used for measuring the effects of TDS alone. When multiple 48 well plates were used, TDS was included in each plate.

[1] = combination with tridecyl salicylate, conclusion from Tables VIII-X

**Q.** For `CCCCC/C=C\C/C=C\CCCCCCCC(=O)OC/C=C(C)/C=C/C=C(C)/C=C/C1=C(C)CCCC1(C)C` [Retinyl Linoleate, retinyl linoleate], which inhibition at 10 µM (Homo sapiens, Table IX, Retinyl Linoleate 10 uM alone, read-out: Retinyl Linoleate % Actual Reduction (SD)) is on record?
**A.** -15%

**Q.** And the inhibition at 50 µM (Homo sapiens, Table IX, Retinyl Linoleate 50 uM alone, read-out: Retinyl Linoleate % Actual Reduction (SD))?
**A.** -7.4%

**Q.** What about the inhibition at 100 µM (Homo sapiens, Table IX, Retinyl Linoleate 100 uM alone, read-out: Retinyl Linoleate % Actual Reduction (SD)) of the same compound?
**A.** 1.9%

**Q.** And the inhibition at 0.1 µM (Homo sapiens, Table VIII, Retinyl Linoleate 100 nM alone, read-out: Retinyl Linoleate % Actual Reduction (SD))?
**A.** 4.4%

**Q.** And the inhibition at 1 µM (Homo sapiens, Table VIII, Retinyl Linoleate 1 uM alone, read-out: Retinyl Linoleate % Actual Reduction (SD))?
**A.** 6%

**Q.** What about the inhibition at 10 µM (Homo sapiens, Table VIII, Retinyl Linoleate 10 uM alone, read-out: Retinyl Linoleate % Actual Reduction (SD)) of the same compound?
**A.** 13.8%

**Q.** What about the inhibition at 100 µM (Homo sapiens, Table VIII, Retinyl Linoleate 100 uM alone, read-out: Retinyl Linoleate % Actual Reduction (SD)) of the same compound?
**A.** 20.3%

**Q.** And the “activity with tridecyl salicylate (synergistic or additive)” value (“activity with tridecyl salicylate” below) [1]?
**A.** synergistic activity

**Q.** How did the inhibition at 10 µM (Homo sapiens, Table X, Retinyl Palmitate 10 uM alone, read-out: Retinyl Palmitate % Actual Reduction (SD)) turn out when `CCCCCCCCCCCCCCCC(=O)OC/C=C(C)/C=C/C=C(C)/C=C/C1=C(C)CCCC1(C)C` [Retinyl Palmitate, retinyl palmitate, reference compound] was run?
**A.** 12.2%

**Q.** What about the inhibition at 100 µM (Homo sapiens, Table X, Retinyl Palmitate 100 uM alone, read-out: Retinyl Palmitate % Actual Reduction (SD)) of the same compound?
**A.** 12%

**Q.** What about the “activity with tridecyl salicylate” value [1] of the same compound?
**A.** only an additive effect

**Q.** How did the inhibition at 50 µM (Homo sapiens, Table IX, 50 uM TDS alone, read-out: Reduction) turn out when `CCCCCCCCCCCCCOC(=O)c1ccccc1O` [TDS, tridecyl salicylate] was run?
**A.** 17.9%

**Q.** What about the inhibition at 100 µM (Homo sapiens, Table IX, 100 uM TDS alone, read-out: Reduction) of the same compound?
**A.** 30.8%

**Q.** What about the inhibition at 10 µM (Homo sapiens, Table VIII, 10 uM TDS alone, read-out: Reduction) of the same compound?
**A.** 19.7%

**Q.** What about the inhibition at 100 µM (Homo sapiens, Table X, 100 uM TDS alone, read-out: Reduction) of the same compound?
**A.** 38.7%

**Q.** How did the “activity with tridecyl salicylate” value (similar trials with retinol instead of retinyl linoleate, retinol at very low levels) turn out when `CC1=C(/C=C/C(C)=C/C=C/C(C)=C/CO)C(C)(C)CCC1` [Retinol] was run?
**A.** synergistic
